These are literature values, as cited in patent US10729782B2, “Antibody-drug conjugate produced by binding through linker having hydrophilic structure” (DAIICHI SANKYO COMPANY, LIMITED, priority 2012, dated 2020).

Structures are written as SMILES.

For series [1], the system named is various cancer cells. The following applies: against various cancer cells, compared with SN-38 and topotecan; cited from earlier work.
For series [2], the system named is human tumor subcutaneously transplanted mouse model. The following applies: cited from earlier work.
The target of series [3] is T1, topoisomerase I (Homo sapiens, UniProt P11387).
T1 sequence (P11387 1-765): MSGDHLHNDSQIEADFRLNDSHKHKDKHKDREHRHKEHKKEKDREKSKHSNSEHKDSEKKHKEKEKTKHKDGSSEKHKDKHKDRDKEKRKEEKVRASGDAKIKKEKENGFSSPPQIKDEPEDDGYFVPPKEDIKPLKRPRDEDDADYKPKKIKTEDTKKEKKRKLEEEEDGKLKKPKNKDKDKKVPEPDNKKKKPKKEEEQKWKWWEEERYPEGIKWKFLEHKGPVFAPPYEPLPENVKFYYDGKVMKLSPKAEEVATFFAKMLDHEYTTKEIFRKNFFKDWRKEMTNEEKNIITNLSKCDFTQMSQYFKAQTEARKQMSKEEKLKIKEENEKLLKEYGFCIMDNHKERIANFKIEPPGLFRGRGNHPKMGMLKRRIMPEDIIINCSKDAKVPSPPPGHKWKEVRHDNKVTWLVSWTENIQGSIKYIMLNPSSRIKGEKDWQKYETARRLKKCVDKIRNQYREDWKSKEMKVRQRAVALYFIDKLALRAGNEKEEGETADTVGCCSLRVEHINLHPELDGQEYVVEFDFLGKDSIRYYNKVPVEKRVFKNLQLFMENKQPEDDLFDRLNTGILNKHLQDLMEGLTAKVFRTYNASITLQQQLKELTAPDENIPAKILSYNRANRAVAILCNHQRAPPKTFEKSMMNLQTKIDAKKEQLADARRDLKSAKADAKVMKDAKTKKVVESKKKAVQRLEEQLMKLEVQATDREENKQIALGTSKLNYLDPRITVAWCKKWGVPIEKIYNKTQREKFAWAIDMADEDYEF
Conditions: compared with SN-38 and topotecan; cited from earlier work.

On to `CC[C@@]1(O)C(=O)OCc2c1cc1n(c2=O)Cc2c-1nc1cc(F)c(C)c3c1c2[C@@H](N)CC3` [exatecan, (1S,9S)-1-amino-9-ethyl-5-fluoro-2,3-dihydro-9-hydroxy-4-methyl-1H,12H-benzo[de]pyrano[3′,4′:6,7]indolizino[1,2-b]quinolin-10,13(9H,15H)-dione], for which the “in vitro cytocidal activity” value in series [1] is “higher in vitro cytocidal activity”. In series [2], the antitumor effect result is “potent antitumor effect”. Besides, the “inhibitory activity on topoisomerase I” value in series [3] is “higher than SN-38”.
